# Laboratory results: patent US20210308034A1, “PREBIOTIC COMPOSITIONS AND METHODS FOR MAINTAINING A HEALTHY SKIN MICROBIOTA” (KIMBERLY-CLARK WORLDWIDE, INC., priority 2018, published 2021)
# Legend:
# Type in all cases: cell-based
# [1] = tested on: Pseudomonas aeruginosa (ATCC 9027); conditions: Pathogenic; carbon microarray plate, OD 600 nm, 36 hr, 33° C.; positive = more than 0.05 OD units above zero; blank cell = not utilized
# From the text: (§1) After creating desired ratios of various commensal skin bacteria in a healthy skin microbiome, 188 different carbohydrate sources were screened as the next step in determining potential prospects for skin microbiota balancing agents. The screening process was set up to determine which carbohydrate sources promoted commensal and/or pathogenic bacteria as well as to obtain individual and combinations of carbohydrate sources that could serve as microbiota balancing agents that can support or maintain the healthy proportions of commensal skin bacteria of Corynebacterium, Staphylococcus, and Micrococcus. The screening was conducted utilizing Biolog phenotype microarray plates (Hayward, Calif.). Table 1 provides a coded list of the commensal and pathogenic skin bacteria that the carbohydrates were screened against.
# (§2) The Bacteria Codes B, D, E, I, and J are commensal bacteria and are shaded in Table 2 for references purposes. The bacteria codes were each placed in a carbon microarray plate and screened through the Carbohydrate Screening Test Method, as described in the Test Methods section herein. If a particular bacteria code utilized a specific carbohydrate source as described in the Carbohydrate Screening Test Method, then the corresponding cell in Table 2 was marked with a Y (short for “Yes”).
# (§3) The study employed 10 representative skin bacteria; Staphylococcus epidermidis ATCC 14990, Staphylococcus epidermidis M23864:W2, Staphylococcus aureus ATCC 6538, Staphylococcus aureus ATCC 25904 (Newman), Pseudomonas aeruginosa ATCC 9027, Micrococcus luteus ATCC […], Micrococcus luteus SK58, Klebsiella pneumoniae ATCC BAA-2146, Corynebacterium amycolatum SK46, and Corynebacterium minutissimum ATCC 23348. Cultures were started from freezer bead stocks by placing a single bead into 20 mL of tryptic soy broth (TSB) for all organisms except C. amycolatum SK46 and C. minutissimum ATCC 23348, which were placed into brain heart infusion (BHI) broth. Cultures were grown for about 24 hr at 37° C. except M. luteus ATCC 49732 and M. luteus SK58, which were grown at 30° C. A passage of the culture was made using a sterile swab and streaked onto two M9*2 agar plates to prepare the incubated culture for the phenotype microarray pate according to Table 4. Plates were incubated for about 24 hr at 37° C. except for M. luteus ATCC 49732 and M. luteus SK58, which were incubated at 30° C. for 24 hr.
# (§4) All cultures were harvested and washed before inoculation into the carbon microarray plate (BiOLOG, Hayward Calif.), with Biolog Plates PM1 and PM2 each having a source definition of Carbon. The bacteria on the M9*2 agar was suspended via agitation with an inoculating loop in 1 mL of M9*1 media for collection in a 1.7 mL micro centrifuge tube, as noted in Table 4. The bacteria was suspended again in M9*1 media, agitated, and collected into the same 1.7 mL microcentrifuge tube used in the previous step. The tube was centrifuged for 5 minutes at 4,000×G, supernatant decanted, the pellet was resuspended in 1 mL of M9*1 media, and vortex. This washing process was repeated for a total of 4 times.
# A tenfold dilution in M9*1 media was performed using 1 mL of the washed bacterial culture. Of the tenfold dilution 200 μL was placed in an untreated 96-well plate (Falcon, Pasadena Tx.) for an initial optical density (OD) reading at a wavelength of 600 nm. The OD was used to correlate to colony forming units (CFU) per milliliter by using linear regression lines for each organism.
# [2] = tested on: Klebsiella pneumoniae (ATCC BAA-2146); conditions: Pathogenic; carbon microarray plate, OD 600 nm, 36 hr, 33° C.; positive = more than 0.05 OD units above zero; blank cell = not utilized
# From the text: as §1
# Table 2 provides the results of screening various carbohydrate sources against the commensal and pathogenic bacteria codes listed in Table 1. The Bacteria Codes B, D, E, I, and J are commensal bacteria and are shaded in Table 2 for references purposes. The bacteria codes were each placed in a carbon microarray plate and screened through the Carbohydrate Screening Test Method, as described in the Test Methods section herein. If a particular bacteria code utilized a specific carbohydrate source as described in the Carbohydrate Screening Test Method, then the corresponding cell in Table 2 was marked with a Y (short for “Yes”). […] Many of the carbohydrate sources were utilized by both commensal and pathogenic bacteria, and as such, would not provide an advantage for selective growth of the commensal bacteria. However, some of the carbohydrate sources were only used by commensal bacteria and were identified for further testing as described herein.
# as §3, §4
# A tenfold dilution in M9*1 media was performed using 1 mL of the washed bacterial culture. Of the tenfold dilution 200 μL was placed in an untreated 96-well plate (Falcon, Pasadena Tx.) for an initial optical density (OD) reading at a wavelength of 600 nm. The OD was used to correlate to colony forming units (CFU) per milliliter by using linear regression lines for each organism. […]
# [3] = tested on: Micrococcus luteus (SK58); assay: Carbohydrate Screening Test Method (Biolog phenotype microarray), Bacteria Code E; conditions: Commensal; carbon microarray plate, OD 600 nm, 36 hr, 33° C.; positive = more than 0.05 OD units above zero; blank cell = not utilized
# From the text: as §1, §2
# (§5) To do so, the respective microarray data for the 79 carbohydrate sources was run through the GrowthRates 2.1 program to obtain growth parameters, such as growth rates and maximum yield data as described by the Belingham Research Institute, Hall, B. G., H. Acar and M. Barlow. 2014 Growth Rates Made Easy. Mol. Biol. Evol. 31:232-238 doi:10.1093/molbev/mst197. The max yield parameters generated were utilized to calculate ratios of tested commensal bacteria. The ratios calculated were compared back to the desired ratios identified above (Corynebacterium to Staphylococcus of 1.3, Corynebacterium to Micrococcus of 1.4, and Staphylococcus to Micrococcus of 1.1).
# (§6) As an example of this methodology used to calculate the commensal bacteria ratios and the difference between the calculated ratios and the desired ratios, an example code from Table 3 will be described. […] The max yields were then used to calculate ratios the bacteria would reach in a co-culture.
# [4] = tested on: Corynebacterium jeikum (ATCC 33033); assay: Carbohydrate Screening Test Method (Biolog phenotype microarray), Bacteria Code B
# Procedure: The screening process was set up to determine which carbohydrate sources promoted commensal and/or pathogenic bacteria as well as to obtain individual and combinations of carbohydrate sources that could serve as microbiota balancing agents that can support or maintain the healthy proportions of commensal skin bacteria of Corynebacterium, Staphylococcus, and Micrococcus. The screening was conducted utilizing Biolog phenotype microarray plates (Hayward, Calif.). Table 1 provides a coded list of the commensal and pathogenic skin bacteria that the carbohydrates were screened against.
# as §2
# as §5, with “2014 Growth Rates Made Easy.” left out, “31:232-238 doi:10.1093/molbev/mst197.” left out
# as §6
# A passage of the culture was made using a sterile swab and streaked onto two M9*2 agar plates to prepare the incubated culture for the phenotype microarray pate according to Table 4.
# All cultures were harvested and washed before inoculation into the carbon microarray plate (BiOLOG, Hayward Calif.), with Biolog Plates PM1 and PM2 each having a source definition of Carbon. The bacteria on the M9*2 agar was suspended via agitation with an inoculating loop in 1 mL of M9*1 media for collection in a 1.7 mL micro centrifuge tube, as noted in Table 4.
# [5] = Commensal, carbon microarray plate, OD 600 nm, 36 hr, 33° C., positive = more than 0.05 OD units above zero, blank cell = not utilized
Structure (SMILES),"Carbohydrate Screening Results, Bacteria Code F [1]","Carbohydrate Screening Results, Bacteria Code C [2]","Carbohydrate Screening Results, Bacteria Code E [3]","Carbohydrate Screening Results, Bacteria Code B [4, 5]","Carbohydrate Screening Results, Bacteria Code B ([4]; ATCC33033, 36 h)"
CCCC(=O)O [Butyric Acid],Y,–,–,–,–
CCCCCCCCCC(=O)O [Capric Acid],Y,–,–,–,–
CCCCCC(=O)O [Caproic Acid],Y,–,–,–,–
CC(O)(CC(=O)O)C(=O)O (stereo not shown) [Citramalic Acid],Y,–,–,–,–
OC[C@@H](O)C(O)[C@H](O)CO [D-Arabitol],Y,Y,–,–,–
O=C1O[C@@H]([C@H](O)CO)[C@H](O)[C@H]1O [D-Galactonic Acid-γ-Lactone],Y,Y,–,–,–
N[C@H]1C(O)O[C@H](CO)[C@@H](O)[C@@H]1O (stereo partly drawn) [D-Glucosamine],Y,Y,–,–,–
O=P(O)(O)O[C@H]1O[C@H](CO)[C@@H](O)[C@H](O)[C@H]1O [D-Glucose-1-Phosphate],–,Y,Y,Y,–
OC[C@H]1O[C@H](OC[C@H]2O[C@H](O[C@]3(CO)O[C@H](CO)[C@@H](O)[C@@H]3O)[C@H](O)[C@@H](O)[C@@H]2O)[C@H](O)[C@@H](O)[C@H]1O [D-Raffinose],–,Y,–,–,–
C=C(CC(=O)O)C(=O)O [Itaconic Acid],Y,–,–,–,–
NC(=O)C[C@H](N)C(=O)O [L-Asparagine],Y,–,–,Y,–
N[C@@H](CC(=O)O)C(=O)O [L-Aspartic Acid],–,Y,–,Y,–
C[C@H](O)[C@@H](O)[C@@H](O)[C@H](O)C=O [L-Fucose],–,Y,Y,Y,–
O=C1O[C@H]([C@@H](O)CO)[C@@H](O)[C@@H]1O [L-Galactonic Acid-γ-Lactone],–,Y,–,Y,–
N[C@@H](CCC(=O)O)C(=O)O [L-Glutamic Acid],Y,–,–,–,Y
NC(=O)CC[C@H](N)C(=O)O [L-Glutamine],–,Y,–,Y,–
O=C1CC[C@@H](C(=O)O)N1 [L-Pyroglutamic Acid],Y,–,–,–,–
C[C@H](O)[C@H](O)[C@@H](O)[C@@H](O)C=O [L-Rhamnose],–,Y,Y,Y,–
O=C(O)[C@H](O)[C@@H](O)[C@H](O)[C@H](O)CO[C@H]1O[C@H](CO)[C@H](O)[C@H](O)[C@H]1O [Melibionic Acid],–,Y,–,–,–
O=C(O)Cc1cccc(O)c1 [m-Hydroxy Phenyl Acetic Acid],–,Y,–,–,–
O[C@H]1[C@H](O)[C@@H](O)[C@H](O)[C@@H](O)[C@H]1O [m-Inositol],–,Y,Y,Y,–
COC1OC(CO)C(O)C(O)C1O [α-Methyl-D-Galactoside],–,Y,Y,Y,–
